From the NIST ThermoML archive (doi:10.1016/j.tca.2005.05.013)
Numbers after ± are expanded uncertainties.

Conditions: Crystal; DTA

Compound | Normal melting temperature
O=[N+]([O-])c1ccc2[nH]c3ccc([N+](=O)[O-])cc3c2c1 [3,6-dinitro-9H-carbazole] | 296.50 ± 10 °C
Nc1ccc2[nH]c3ccc(N)cc3c2c1 [3,6-diamino-9H-carbazole] | 241.00 ± 10 °C
